# Measured values published in PubChem BioAssay (NCI).
#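 Where inhibition never reached the appropriate level, the endpoint shown equals the highest concentration tested. Otherwise, values were interpolated linearly from a five-concentration, 48-hour dose response in 96-well plates. TGI: total growth inhibition.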
# Assays:
# Test in all cases: growth of human tumour cells (NCI), 48 h
# EKVX NSCLC = test system: EKVX NSCLC
# U251 CNS = test system: U251 CNS
# SNB-19 CNS = test system: SNB-19 CNS
# A498 renal = test system: A498 renal
# KM20L2 colon = test system: KM20L2 colon
# SNB-78 CNS = test system: SNB-78 CNS
# SN12C renal = test system: SN12C renal
# RXF 393 renal = test system: RXF 393 renal
# IGROV1 ovarian = test system: IGROV1 ovarian
# OVCAR-8 ovarian = test system: OVCAR-8 ovarian
# LOX IMVI melanoma = test system: LOX IMVI melanoma
# K-562 leukemia = test system: K-562 leukemia
# NCI-H522 lung = test system: NCI-H522 lung
# SF-295 CNS = test system: SF-295 CNS
# A549 NSCLC = test system: A549 NSCLC
# LXFL 529 NSCLC = test system: LXFL 529 NSCLC
# NCI-H226 lung = test system: NCI-H226 lung
# SR leukemia = test system: SR leukemia
# RPMI-8226 leukemia = test system: RPMI-8226 leukemia
# HL-60(TB) leukemia = test system: HL-60(TB) leukemia
# 786-0 renal = test system: 786-0 renal
# NCI-H23 lung = test system: NCI-H23 lung
# XF 498 CNS = test system: XF 498 CNS
# HT29 colon = test system: HT29 colon
# OVCAR-4 ovarian = test system: OVCAR-4 ovarian
# SK-MEL-28 melanoma = test system: SK-MEL-28 melanoma
# HCC-2998 colon = test system: HCC-2998 colon
# SW-620 colon = test system: SW-620 colon
# SF-539 CNS = test system: SF-539 CNS
# HOP-92 NSCLC = test system: HOP-92 NSCLC
# MOLT-4 leukemia = test system: MOLT-4 leukemia
# MALME-3M melanoma = test system: MALME-3M melanoma
# DLD-1 colon = test system: DLD-1 colon
# NCI-H460 lung = test system: NCI-H460 lung
# HCT-15 colon = test system: HCT-15 colon
# COLO 205 colon = test system: COLO 205 colon
# DMS 114 small cell lung = test system: DMS 114 small cell lung
# HCT-116 colon = test system: HCT-116 colon
# HOP-18 NSCLC = test system: HOP-18 NSCLC
# UO-31 renal = test system: UO-31 renal
# SF-268 CNS = test system: SF-268 CNS
# KM12 colon = test system: KM12 colon
# UACC-257 melanoma = test system: UACC-257 melanoma
# HOP-62 NSCLC = test system: HOP-62 NSCLC
# OVCAR-3 ovarian = test system: OVCAR-3 ovarian
# ACHN renal = test system: ACHN renal
# TK-10 renal = test system: TK-10 renal
# M19-MEL melanoma = test system: M19-MEL melanoma
# SNB-75 CNS = test system: SNB-75 CNS
# SK-MEL-2 melanoma = test system: SK-MEL-2 melanoma
# M14 melanoma = test system: M14 melanoma
# OVCAR-5 ovarian = test system: OVCAR-5 ovarian
# DMS 273 small cell lung = test system: DMS 273 small cell lung
# UACC-62 melanoma = test system: UACC-62 melanoma
# CAKI-1 renal = test system: CAKI-1 renal
# SK-OV-3 ovarian = test system: SK-OV-3 ovarian
# SK-MEL-5 melanoma = test system: SK-MEL-5 melanoma
# CCRF-CEM leukemia = test system: CCRF-CEM leukemia
compound,measurement,setting,value
O=c1c2ccccc2[nH]c(=S)n1-c1ccc(Br)cc1,TGI,EKVX NSCLC,> 100 µM
same,TGI,U251 CNS,> 100 µM
same,TGI,SNB-19 CNS,> 100 µM
same,TGI,A498 renal,> 100 µM
same,TGI,KM20L2 colon,> 100 µM
same,TGI,SNB-78 CNS,> 100 µM
same,TGI,SN12C renal,> 100 µM
same,TGI,RXF 393 renal,> 100 µM
same,TGI,IGROV1 ovarian,> 100 µM
same,TGI,OVCAR-8 ovarian,> 100 µM
same,TGI,LOX IMVI melanoma,> 100 µM
same,TGI,K-562 leukemia,> 100 µM
same,TGI,NCI-H522 lung,> 100 µM
same,TGI,SF-295 CNS,> 100 µM
same,TGI,A549 NSCLC,> 100 µM
same,TGI,LXFL 529 NSCLC,> 100 µM
same,TGI,NCI-H226 lung,> 100 µM
same,TGI,SR leukemia,> 100 µM
same,TGI,RPMI-8226 leukemia,> 100 µM
same,TGI,HL-60(TB) leukemia,> 100 µM
same,TGI,786-0 renal,> 100 µM
same,TGI,NCI-H23 lung,> 100 µM
same,TGI,XF 498 CNS,> 100 µM
same,TGI,HT29 colon,> 100 µM
same,TGI,OVCAR-4 ovarian,> 100 µM
same,TGI,SK-MEL-28 melanoma,> 100 µM
same,TGI,HCC-2998 colon,> 100 µM
same,TGI,SW-620 colon,> 100 µM
same,TGI,SF-539 CNS,> 100 µM
same,TGI,HOP-92 NSCLC,70 µM
same,TGI,MOLT-4 leukemia,> 100 µM
same,TGI,MALME-3M melanoma,> 100 µM
same,TGI,DLD-1 colon,> 100 µM
same,TGI,NCI-H460 lung,> 100 µM
same,TGI,HCT-15 colon,> 100 µM
same,TGI,COLO 205 colon,> 100 µM
same,TGI,DMS 114 small cell lung,> 100 µM
same,TGI,HCT-116 colon,> 100 µM
same,TGI,HOP-18 NSCLC,> 100 µM
same,TGI,UO-31 renal,> 100 µM
same,TGI,SF-268 CNS,> 100 µM
same,TGI,KM12 colon,> 100 µM
same,TGI,UACC-257 melanoma,> 100 µM
same,TGI,HOP-62 NSCLC,> 100 µM
same,TGI,OVCAR-3 ovarian,> 100 µM
same,TGI,ACHN renal,> 100 µM
same,TGI,TK-10 renal,> 100 µM
same,TGI,M19-MEL melanoma,> 100 µM
same,TGI,SNB-75 CNS,> 100 µM
same,TGI,SK-MEL-2 melanoma,> 100 µM
CCOc1ccccc1NC(=O)C(=O)CC(=O)c1c(C)n([O-])c2ccccc2[n+]1=O,TGI,EKVX NSCLC,> 100 µM
same,TGI,U251 CNS,> 100 µM
same,TGI,SNB-19 CNS,> 100 µM
same,TGI,A498 renal,> 100 µM
same,TGI,KM20L2 colon,> 100 µM
same,TGI,SNB-78 CNS,> 100 µM
same,TGI,SN12C renal,> 100 µM
same,TGI,RXF 393 renal,> 100 µM
same,TGI,IGROV1 ovarian,> 100 µM
same,TGI,OVCAR-8 ovarian,> 100 µM
same,TGI,LOX IMVI melanoma,> 100 µM
same,TGI,K-562 leukemia,> 100 µM
same,TGI,NCI-H522 lung,> 100 µM
same,TGI,M14 melanoma,> 100 µM
same,TGI,SF-295 CNS,> 100 µM
same,TGI,A549 NSCLC,> 100 µM
same,TGI,OVCAR-5 ovarian,> 100 µM
same,TGI,LXFL 529 NSCLC,> 100 µM
same,TGI,DMS 273 small cell lung,> 100 µM
same,TGI,NCI-H226 lung,> 100 µM
same,TGI,RPMI-8226 leukemia,> 100 µM
same,TGI,HL-60(TB) leukemia,> 100 µM
same,TGI,786-0 renal,> 100 µM
same,TGI,NCI-H23 lung,> 100 µM
same,TGI,HT29 colon,> 100 µM
same,TGI,OVCAR-4 ovarian,> 100 µM
same,TGI,SK-MEL-28 melanoma,> 100 µM
same,TGI,UACC-62 melanoma,> 100 µM
same,TGI,HCC-2998 colon,> 100 µM
same,TGI,SW-620 colon,> 100 µM
same,TGI,SF-539 CNS,> 100 µM
same,TGI,HOP-92 NSCLC,> 100 µM
same,TGI,MOLT-4 leukemia,> 100 µM
same,TGI,MALME-3M melanoma,> 100 µM
same,TGI,NCI-H460 lung,> 100 µM
same,TGI,HCT-15 colon,> 100 µM
same,TGI,COLO 205 colon,> 100 µM
same,TGI,DMS 114 small cell lung,> 100 µM
same,TGI,HCT-116 colon,> 100 µM
same,TGI,HOP-18 NSCLC,> 100 µM
same,TGI,UO-31 renal,> 100 µM
same,TGI,SF-268 CNS,> 100 µM
same,TGI,CAKI-1 renal,> 100 µM
same,TGI,KM12 colon,> 100 µM
same,TGI,UACC-257 melanoma,> 100 µM
same,TGI,HOP-62 NSCLC,> 100 µM
same,TGI,OVCAR-3 ovarian,75.8 µM
same,TGI,ACHN renal,> 100 µM
same,TGI,TK-10 renal,> 100 µM
same,TGI,SK-OV-3 ovarian,> 100 µM
same,TGI,M19-MEL melanoma,> 100 µM
same,TGI,SNB-75 CNS,> 100 µM
same,TGI,SK-MEL-2 melanoma,> 100 µM
same,TGI,SK-MEL-5 melanoma,> 100 µM
same,TGI,CCRF-CEM leukemia,> 100 µM
